From PMC11822212, “High-throughput screening identifies Aurora kinase B as a critical therapeutic target for Merkel cell carcinoma” (Nature Communications, 2025)
“And” between values parts separate entries of the source, which are not always exact repeats. Equal entries are not always repeated. Where two headings read alike, the source gives them in different places.

Legend:
MKL-1 cells (VP-MCC) = assay: qHTS cell viability (CellTiter-Glo, 72 h; primary and follow-up small molecule screen); type: cell-based, human
[1] = system: six MCC cell lines and four control cell lines; assay: qHTS cell viability, all 10 cell lines screened; type: cell-based
MCC26 cells (VN-MCC) = assay: qHTS cell viability (CellTiter-Glo, 72 h; primary and follow-up small molecule screen); type: cell-based, human
NIH-3T3 cells = assay: qHTS cell viability (CellTiter-Glo, 72 h; primary screen), control cell line; type: cell-based, mouse
WAGA cells (VP-MCC) = assay: qHTS cell viability (CellTiter-Glo, 72 h; primary and follow-up small molecule screen); type: cell-based, human
HACAT cells = assay: qHTS cell viability (CellTiter-Glo, 72 h; primary screen), control cell line; type: cell-based, human
[2] = system: VN-MCC cell lines (MCC13, MCC26, UISO); assay: qHTS cell viability, VN-MCC cell lines as a group (mean AUC, VN.MCC.avg); type: cell-based, human
MCC13 cells (VN-MCC) = assay: qHTS cell viability (CellTiter-Glo, 72 h; primary and follow-up small molecule screen); type: cell-based, human
MKL-2 cells (VP-MCC) = assay: as above; type: cell-based, human
UISO cells (VN-MCC) = assay: as above; type: cell-based, human
HEK293T cells = assay: qHTS cell viability (CellTiter-Glo, 72 h; primary screen), control cell line; type: cell-based, human
[3] = system: MCC cell lines (WAGA, MKL-1, MKL-2, MCC13, MCC26, UISO); assay: qHTS cell viability, all six MCC cell lines as a group (mean AUC, MCC.avg); type: cell-based, human
CRL-7250 cells = assay: qHTS cell viability (CellTiter-Glo, 72 h; primary screen), control cell line; type: cell-based
[4] = system: control cell lines (HACAT, HEK293T, CRL-7250, NIH-3T3); assay: qHTS cell viability, control cell lines as a group (mean AUC, Control.avg); type: cell-based
[5] = system: VP-MCC cell lines (WAGA, MKL-1, MKL-2); assay: qHTS cell viability, VP-MCC cell lines as a group (mean AUC, VP.MCC.avg); type: cell-based, human
[6] = MIPE library, 11-point DRC, sheet S2E
[7] = MIPE library, Control AUC minus MCC AUC (therapeutic window), sheet S2E
[8] = MIPE library, 11-point DRC, control cell line, sheet S2E
[9] = MIPE library, Control AUC minus VN-MCC AUC (therapeutic window), sheet S2E
[10] = MIPE library, mean AUC of VN-MCC cell lines, sheet S2E
[11] = MIPE library, mean AUC of six MCC cell lines, sheet S2E
[12] = MIPE library, mean AUC of control cell lines, sheet S2E
[13] = MIPE library, Control AUC minus VP-MCC AUC (therapeutic window), sheet S2E
[14] = MIPE library, mean AUC of VP-MCC cell lines, sheet S2E

## CCC(=O)OC1(c2ccccc2)CCN(C)CC1.Cl
MKL-1 cells (VP-MCC)
  MKL1_AUC: 398.305
[1]
  Control-MCC: 35.9859
MCC26 cells (VN-MCC)
  MCC26_AUC: 456.799
NIH-3T3 cells
  NIH3T3_AUC: 479.714
WAGA cells (VP-MCC)
  WAGA_AUC: 438.281
HACAT cells
  HACAT_AUC: 483.91
[2]
  Control-VN-MCC: 13.9158
  VN-MCC_Avg_AUC: 457.741
MCC13 cells (VN-MCC)
  MCC13_AUC: 464.627
MKL-2 cells (VP-MCC)
  MKL2_AUC: 404.215
UISO cells (VN-MCC)
  UISO_AUC: 451.795
HEK293T cells
  HEK293T_AUC: 479.823
[3]
  MCC_Avg_AUC: 435.67
CRL-7250 cells
  CRL7250_AUC: 443.177
[4]
  Control_Avg_AUC: 471.656
[5]
  Control-VP-MCC: 58.056
  VP-MCC_Avg_AUC: 413.6

## CNC(C)Cc1ccc2c(c1)OCO2.Cl (centres unmarked)
MKL-1 cells (VP-MCC)
  MKL1_AUC: 436.372
[1]
  Control-MCC: 54.0945
MCC26 cells (VN-MCC)
  MCC26_AUC: 414.843
NIH-3T3 cells
  NIH3T3_AUC: 493.81
WAGA cells (VP-MCC)
  WAGA_AUC: 422.784
HACAT cells
  HACAT_AUC: 490.316
[2]
  Control-VN-MCC: 53.7607
  VN-MCC_Avg_AUC: 436.031
MCC13 cells (VN-MCC)
  MCC13_AUC: 451.345
MKL-2 cells (VP-MCC)
  MKL2_AUC: 446.935
UISO cells (VN-MCC)
  UISO_AUC: 441.906
HEK293T cells
  HEK293T_AUC: 483.458
[3]
  MCC_Avg_AUC: 435.698
CRL-7250 cells
  CRL7250_AUC: 491.585
[4]
  Control_Avg_AUC: 489.792
[5]
  Control-VP-MCC: 54.4283
  VP-MCC_Avg_AUC: 435.364

## CC(=O)OC1(c2ccccc2)CCN(CCc2ccccc2)CC1
MKL-1 cells (VP-MCC)
  MKL1_AUC: 375.288
[1]
  Control-MCC: 68.5641
MCC26 cells (VN-MCC)
  MCC26_AUC: 420.097
NIH-3T3 cells
  NIH3T3_AUC: 473.448
WAGA cells (VP-MCC)
  WAGA_AUC: 388.929
HACAT cells
  HACAT_AUC: 477.567
[2]
  Control-VN-MCC: 54.768
  VN-MCC_Avg_AUC: 409.79
MCC13 cells (VN-MCC)
  MCC13_AUC: 419.397
MKL-2 cells (VP-MCC)
  MKL2_AUC: 382.375
UISO cells (VN-MCC)
  UISO_AUC: 389.875
HEK293T cells
  HEK293T_AUC: 449.554
[3]
  MCC_Avg_AUC: 395.993 and 395.994
CRL-7250 cells
  CRL7250_AUC: 457.662
[4]
  Control_Avg_AUC: 464.558
[5]
  Control-VP-MCC: 82.3602
  VP-MCC_Avg_AUC: 382.197

## COc1ccc(C(=O)CC(=O)c2ccc(C(C)(C)C)cc2)cc1
MKL-1 cells (VP-MCC); [6]
  MKL1_AUC: 339.212
MKL-1 cells (VP-MCC); area under the dose-response curve, MKL-1 cells, AUC<450 = reduced viability
  MKL1_AUC: 411.648
[1]; [7]
  Control-MCC: 65.7381
MCC26 cells (VN-MCC); [6]
  MCC26_AUC: 485.026
MCC26 cells (VN-MCC); area under the dose-response curve, MCC26 cells; AUC<450 = reduced viability
  MCC26_AUC: 481.864
NIH-3T3 cells; [8]
  NIH3T3_AUC: 477.589
NIH-3T3 cells; area under the dose-response curve, NIH3T3 control cells, AUC<450 = reduced viability
  NIH3T3_AUC: 482.946
WAGA cells (VP-MCC); [6]
  WAGA_AUC: 305.979
WAGA cells (VP-MCC); area under the dose-response curve, WAGA cells, AUC<450 = reduced viability
  WAGA_AUC: 381.481
HACAT cells; [8]
  HACAT_AUC: 476.58
HACAT cells; area under the dose-response curve, HACAT control cells, AUC<450 = reduced viability
  HACAT_AUC: 467.786
[2]; [9]
  Control-VN-MCC: -9.242
[2]; [10]
  VN-MCC_Avg_AUC: 469.944
MCC13 cells (VN-MCC); [6]
  MCC13_AUC: 495.434
MCC13 cells (VN-MCC); area under the dose-response curve, MCC13 cells, AUC<450 = reduced viability
  MCC13_AUC: 482.294
MKL-2 cells (VP-MCC); [6]
  MKL2_AUC: 314.76
MKL-2 cells (VP-MCC); area under the dose-response curve, MKL-2 cells, AUC<450 = reduced viability
  MKL2_AUC: 386.921
UISO cells (VN-MCC); [6]
  UISO_AUC: 429.371
UISO cells (VN-MCC); area under the dose-response curve, UISO cells, AUC<450 = reduced viability
  UISO_AUC: 482.124
HEK293T cells; [8]
  HEK293T_AUC: 472.366
HEK293T cells; area under the dose-response curve, HEK293T control cells; AUC<450 = reduced viability
  HEK293T_AUC: 465.048
[3]; [11]
  MCC_Avg_AUC: 394.964
CRL-7250 cells; [8]
  CRL7250_AUC: 416.272
CRL-7250 cells; area under the dose-response curve, CRL7250 control cells, AUC<450 = reduced viability
  CRL7250_AUC: 453.419
[4]; [12]
  Control_Avg_AUC: 460.702
[5]; [13]
  Control-VP-MCC: 140.718
[5]; [14]
  VP-MCC_Avg_AUC: 319.984

## COc1cc(C[C@@H](C)N)c(OC)cc1C.Cl
MKL-1 cells (VP-MCC)
  MKL1_AUC: 46.808
[1]
  Control-MCC: 78.6147
MCC26 cells (VN-MCC)
  MCC26_AUC: 411.829
NIH-3T3 cells
  NIH3T3_AUC: 358.481
WAGA cells (VP-MCC)
  WAGA_AUC: 120.519
HACAT cells
  HACAT_AUC: 438.262
[2]
  Control-VN-MCC: -98.1417
  VN-MCC_Avg_AUC: 433.35
MCC13 cells (VN-MCC)
  MCC13_AUC: 469.394
MKL-2 cells (VP-MCC)
  MKL2_AUC: 72.1855
UISO cells (VN-MCC)
  UISO_AUC: 418.828
HEK293T cells
  HEK293T_AUC: 304.503
[3]
  MCC_Avg_AUC: 256.594
CRL-7250 cells
  CRL7250_AUC: 239.588
[4]
  Control_Avg_AUC: 335.209
[5]
  Control-VP-MCC: 255.371
  VP-MCC_Avg_AUC: 79.8375

## C#C[C@]1(OC(C)=O)CC[C@H]2[C@@H]3CCC4=CC(=NO)CC[C@@H]4[C@H]3CC[C@@]21CC (mixture of isomers) [Norgestimate]
MKL-1 cells (VP-MCC); NPC library, qHTS dose-response AUC, MKL1
  MKL1_AUC: 398.179
[1]; NPC library, therapeutic window: Control avg AUC minus MCC avg AUC
  Control-MCC: 51.4735
MCC26 cells (VN-MCC); NPC library, qHTS dose-response AUC, MCC26
  MCC26_AUC: 396.072
MCC26 cells (VN-MCC); NPC library; qHTS dose-response AUC, MCC26
  MCC26_AUC: 396.073
NIH-3T3 cells; NPC library, qHTS dose-response AUC, NIH3T3 control
  NIH3T3_AUC: 462.903
WAGA cells (VP-MCC); NPC library, qHTS dose-response AUC, WAGA
  WAGA_AUC: 384.002
HACAT cells; NPC library, qHTS dose-response AUC, HACAT control
  HACAT_AUC: 469.318
[2]; Control AUC minus VN-MCC AUC
  Control-VN-MCC: 41.6867
[2]; NPC library, mean AUC of VN-MCC cell lines
  VN-MCC_Avg_AUC: 418.896
[2]; NPC library, therapeutic window: Control avg AUC minus VN-MCC avg AUC
  Control-VN-MCC: 41.6867
MCC13 cells (VN-MCC); NPC library, qHTS dose-response AUC, MCC13
  MCC13_AUC: 443.22
MKL-2 cells (VP-MCC); NPC library, qHTS dose-response AUC, MKL2
  MKL2_AUC: 415.787
UISO cells (VN-MCC); NPC library, qHTS dose-response AUC, UISO
  UISO_AUC: 417.397
HEK293T cells; NPC library, qHTS dose-response AUC, HEK293T control
  HEK293T_AUC: 418.546
HEK293T cells; NPC library; qHTS dose-response AUC, HEK293T control
  HEK293T_AUC: 418.545
[3]; NPC library, mean AUC of all 6 MCC cell lines
  MCC_Avg_AUC: 409.11
[3]; NPC library, mean AUC of six MCC cell lines
  MCC_Avg_AUC: 409.109
CRL-7250 cells; NPC library, qHTS dose-response AUC, CRL7250 control
  CRL7250_AUC: 491.565
[4]; NPC library, mean AUC of control cell lines
  Control_Avg_AUC: 460.583
[5]; Control AUC minus VP-MCC AUC
  Control-VP-MCC: 61.2604
[5]; NPC library, mean AUC of VP-MCC cell lines
  VP-MCC_Avg_AUC: 399.323
[5]; NPC library, therapeutic window: Control avg AUC minus VP-MCC avg AUC
  Control-VP-MCC: 61.2604

## C=C1/C(=C\C=C2/CCC[C@]3(C)[C@@H]([C@H](C)/C=C/[C@H](C)C(C)C)CC[C@@H]23)C[C@@H](O)C[C@@H]1O [1-alpha-Hydroxyergocalciferol]
MKL-1 cells (VP-MCC); [6]
  MKL1_AUC: 338.352
[1]; [7]
  Control-MCC: 67.1615
MCC26 cells (VN-MCC); [6]
  MCC26_AUC: 429.194
NIH-3T3 cells; [8]
  NIH3T3_AUC: 349.858
WAGA cells (VP-MCC); [6]
  WAGA_AUC: 235.191
HACAT cells; [8]
  HACAT_AUC: 470.948
[2]; [9]
  Control-VN-MCC: 0.7959
[2]; [10]
  VN-MCC_Avg_AUC: 427.411
MCC13 cells (VN-MCC); [6]
  MCC13_AUC: 466.906
MKL-2 cells (VP-MCC); [6]
  MKL2_AUC: 310.498
UISO cells (VN-MCC); [6]
  UISO_AUC: 386.134
HEK293T cells; [8]
  HEK293T_AUC: 473.524
[3]; [11]
  MCC_Avg_AUC: 361.046
CRL-7250 cells; [8]
  CRL7250_AUC: 418.5
[4]; [12]
  Control_Avg_AUC: 428.207
[5]; [13]
  Control-VP-MCC: 133.527
[5]; [14]
  VP-MCC_Avg_AUC: 294.68
